Measured values as given in patent publication US11833133B2, “Solid oral pharmaceutical composition” (Orient Pharma Co., Ltd., priority 2020, dated 2023).
Blank lines part the entries; values can stand above or below the compound they belong to.

Tests used:
[1] = Long term stability of composition of pitavastatin calcium and ezetimibe (25° C./60% RH); type: physicochemical; conditions: Example 5 composition, Alu-alu blisters
Experimental: The composition of pitavastatin calcium and ezetimibe prepared in Example 5 of the present disclosure were packed in Alu-alu blisters and stored under long term stability (25° C./60% RH). The assay of pitavastatin calcium and ezetimibe as well as the impurities were measured.

[2] = tested on: chronic kidney disease patients; conditions: ezetimibe 10 mg/day co-administered with pitavastatin calcium 2 mg/day; cited from earlier work
[3] = tested on: nephrectomized rats fed high-cholesterol; conditions: cited from earlier work
[4] = Dissolution test, USP apparatus II (Paddle Method) with sinkers, HPLC; type: physicochemical
Experimental: Dissolution Methods and Assay
Dissolution medium such as 0.1N HCl, phosphate buffer (pH 4.5) and phosphate buffer (pH 6.8) were prepared following USP Method. 0.3% Tween 80 was added into the medium to help solubilize the active ingredients. Dissolution conditions were summarized as in the following. Dissolution samples were analyzed by HPLC method.
Apparatus: USP apparatus II (Paddle Method) with sinkers.
Medium: 0.1N HCl, Phosphate Buffer phosphate buffer (pH 4.5) or Phosphate Buffer phosphate buffer (pH 6.8).
Filter: 10 μm HDPE full flow filter tips

[5] = Example 1 single layered tablet, 5 min
[6] = Example 1 single layered tablet, 10 min
[7] = Example 1 single layered tablet, 15 min
[8] = Example 1 single layered tablet, 30 min
[9] = Example 1 single layered tablet, 45 min
[10] = Example 2 double layered tablet, 5 min
[11] = Example 2 double layered tablet, 10 min
[12] = Example 2 double layered tablet, 15 min
[13] = Example 2 double layered tablet, 30 min
[14] = Example 2 double layered tablet, 45 min
[15] = pellets in one capsule (Example 5), 5 min
[16] = pellets in one capsule (Example 5), 10 min
[17] = pellets in one capsule (Example 5), 15 min
[18] = pellets in one capsule (Example 5), 20 min
[19] = pellets in one capsule (Example 5), 30 min
[20] = pellets in one capsule (Example 5), 45 min

Assay (%) ([1]; 3 Months): 99.5% | Impurities (%), Major ([1]; 3 Months): 0.06% | Impurities (%), Total ([1]; 3 Months): 0.06% | Assay (%) ([1]; 6 Months): 101% | Impurities (%), Major ([1]; 6 Months): 0.06% | Impurities (%), Total ([1]; 6 Months): 0.06% | Assay (%) ([1]; 9 Months): 102.9% | Impurities (%), Major ([1]; 9 Months): 0.06% | Impurities (%), Total ([1]; 9 Months): 0.06% | Assay (%) ([1]; 12 Months): 99.7% | Impurities (%), Major ([1]; 12 Months): 0.06% | Impurities (%), Total ([1]; 12 Months): 0.06% | Assay (%) ([1]; Initial): 100% | Impurities (%), Major ([1]; Initial): 0.06% | Impurities (%), Total ([1]; Initial): 0.06% | % Released into 0.1 N HCl with 0.3% Tween 80 at sampling time (min) [4, 5]: 56% | % Released into Phosphate Buffer (pH 6.8) with 0.3% Tween 80 at sampling time (min) [4, 5]: 54% | % Released into 0.1 N HCl with 0.3% Tween 80 at sampling time (min) [4, 6]: 70% | % Released into Phosphate Buffer (pH 6.8) with 0.3% Tween 80 at sampling time (min) [4, 6]: 77% | % Released into 0.1 N HCl with 0.3% Tween 80 at sampling time (min) [4, 7]: 77% | % Released into Phosphate Buffer (pH 6.8) with 0.3% Tween 80 at sampling time (min) [4, 7]: 86% | % Released into 0.1 N HCl with 0.3% Tween 80 at sampling time (min) [4, 8]: 86% | % Released into Phosphate Buffer (pH 6.8) with 0.3% Tween 80 at sampling time (min) [4, 8]: 94% | % Released into 0.1 N HCl with 0.3% Tween 80 at sampling time (min) [4, 9]: 91% | % Released into Phosphate Buffer (pH 6.8) with 0.3% Tween 80 at sampling time (min) [4, 9]: 96% | % Released into 0.1 N HCl with 0.3% Tween 80 at sampling time (min) [4, 10]: 30% | % Released into Phosphate Buffer (pH 6.8) with 0.3% Tween 80 at sampling time (min) [4, 10]: 42% | % Released into 0.1 N HCl with 0.3% Tween 80 at sampling time (min) [4, 11]: 56% | % Released into Phosphate Buffer (pH 6.8) with 0.3% Tween 80 at sampling time (min) [4, 11]: 72% | % Released into 0.1 N HCl with 0.3% Tween 80 at sampling time (min) [4, 12]: 67% | % Released into Phosphate Buffer (pH 6.8) with 0.3% Tween 80 at sampling time (min) [4, 12]: 80% | % Released into 0.1 N HCl with 0.3% Tween 80 at sampling time (min) [4, 13]: 79% | % Released into Phosphate Buffer (pH 6.8) with 0.3% Tween 80 at sampling time (min) [4, 13]: 88% | % Released into 0.1 N HCl with 0.3% Tween 80 at sampling time (min) [4, 14]: 83% | % Released into Phosphate Buffer (pH 6.8) with 0.3% Tween 80 at sampling time (min) [4, 14]: 91% | % Released into 0.1 N HCl with 0.3% Tween 80 at sampling time (min) [4, 15]: 71% | % Released into Phosphate Buffer (pH 4.5) with 0.3% Tween 80 at sampling time (min) [4, 15]: 64% | % Released into Phosphate Buffer (pH 6.8) with 0.3% Tween 80 at sampling time (min) [4, 15]: 69% | % Released into 0.1 N HCl with 0.3% Tween 80 at sampling time (min) [4, 16]: 95% | % Released into Phosphate Buffer (pH 4.5) with 0.3% Tween 80 at sampling time (min) [4, 16]: 99% | % Released into Phosphate Buffer (pH 6.8) with 0.3% Tween 80 at sampling time (min) [4, 16]: 96% | % Released into 0.1 N HCl with 0.3% Tween 80 at sampling time (min) [4, 17]: 99% | % Released into Phosphate Buffer (pH 4.5) with 0.3% Tween 80 at sampling time (min) [4, 17]: 103% | % Released into Phosphate Buffer (pH 6.8) with 0.3% Tween 80 at sampling time (min) [4, 17]: 102% | % Released into 0.1 N HCl with 0.3% Tween 80 at sampling time (min) [4, 18]: 100% | % Released into Phosphate Buffer (pH 4.5) with 0.3% Tween 80 at sampling time (min) [4, 18]: 104% | % Released into Phosphate Buffer (pH 6.8) with 0.3% Tween 80 at sampling time (min) [4, 18]: 103% | % Released into 0.1 N HCl with 0.3% Tween 80 at sampling time (min) [4, 19]: 101% | % Released into Phosphate Buffer (pH 4.5) with 0.3% Tween 80 at sampling time (min) [4, 19]: 105% | % Released into Phosphate Buffer (pH 6.8) with 0.3% Tween 80 at sampling time (min) [4, 19]: 104% | % Released into 0.1 N HCl with 0.3% Tween 80 at sampling time (min) [4, 20]: 101% | % Released into Phosphate Buffer (pH 4.5) with 0.3% Tween 80 at sampling time (min) [4, 20]: 105% | % Released into Phosphate Buffer (pH 6.8) with 0.3% Tween 80 at sampling time (min) [4, 20]: 104%
Compound: O=C1[C@H](CC[C@H](O)c2ccc(F)cc2)[C@@H](c2ccc(O)cc2)N1c1ccc(F)cc1 [Ezetimibe, ezetimibe]
Proteinuria-lowering effects [2]: enhances proteinuria-lowering effects of pitavastatin calcium | Kidney dysfunction / kidney damage [3]: confers renoprotective effects

Assay (%) ([1]; 3 Months): 96.4% | Impurities (%), Major ([1]; 3 Months): 0.03% | Impurities (%), Total ([1]; 3 Months): 0.03% | Assay (%) ([1]; 6 Months): 97% | Impurities (%), Major ([1]; 6 Months): 0.09% | Impurities (%), Total ([1]; 6 Months): 0.09% | Assay (%) ([1]; 9 Months): 95% | Impurities (%), Major ([1]; 9 Months): 0.08% | Impurities (%), Total ([1]; 9 Months): 0.13% | Assay (%) ([1]; 12 Months): 96.5% | Impurities (%), Major ([1]; 12 Months): 0.05% | Impurities (%), Total ([1]; 12 Months): 0.05% | Assay (%) ([1]; Initial): 98.2% | Impurities (%), Major ([1]; Initial): 0.02% | Impurities (%), Total ([1]; Initial): 0.02% | % Released into 0.1 N HCl with 0.3% Tween 80 at sampling time (min) [4, 5]: 79% | % Released into Phosphate Buffer (pH 6.8) with 0.3% Tween 80 at sampling time (min) [4, 5]: 69% | % Released into 0.1 N HCl with 0.3% Tween 80 at sampling time (min) [4, 6]: 84% | % Released into Phosphate Buffer (pH 6.8) with 0.3% Tween 80 at sampling time (min) [4, 6]: 90% | % Released into 0.1 N HCl with 0.3% Tween 80 at sampling time (min) [4, 7]: 86% | % Released into Phosphate Buffer (pH 6.8) with 0.3% Tween 80 at sampling time (min) [4, 7]: 95% | % Released into 0.1 N HCl with 0.3% Tween 80 at sampling time (min) [4, 8]: 89% | % Released into Phosphate Buffer (pH 6.8) with 0.3% Tween 80 at sampling time (min) [4, 8]: 97% | % Released into 0.1 N HCl with 0.3% Tween 80 at sampling time (min) [4, 9]: 90% | % Released into Phosphate Buffer (pH 6.8) with 0.3% Tween 80 at sampling time (min) [4, 9]: 98% | % Released into 0.1 N HCl with 0.3% Tween 80 at sampling time (min) [4, 10]: 81% | % Released into Phosphate Buffer (pH 6.8) with 0.3% Tween 80 at sampling time (min) [4, 10]: 90% | % Released into 0.1 N HCl with 0.3% Tween 80 at sampling time (min) [4, 11]: 87% | % Released into Phosphate Buffer (pH 6.8) with 0.3% Tween 80 at sampling time (min) [4, 11]: 96% | % Released into 0.1 N HCl with 0.3% Tween 80 at sampling time (min) [4, 12]: 89% | % Released into Phosphate Buffer (pH 6.8) with 0.3% Tween 80 at sampling time (min) [4, 12]: 97% | % Released into 0.1 N HCl with 0.3% Tween 80 at sampling time (min) [4, 13]: 86% | % Released into Phosphate Buffer (pH 6.8) with 0.3% Tween 80 at sampling time (min) [4, 13]: 99% | % Released into 0.1 N HCl with 0.3% Tween 80 at sampling time (min) [4, 14]: 89% | % Released into Phosphate Buffer (pH 6.8) with 0.3% Tween 80 at sampling time (min) [4, 14]: 100% | % Released into 0.1 N HCl with 0.3% Tween 80 at sampling time (min) [4, 15]: 90% | % Released into Phosphate Buffer (pH 4.5) with 0.3% Tween 80 at sampling time (min) [4, 15]: 82% | % Released into Phosphate Buffer (pH 6.8) with 0.3% Tween 80 at sampling time (min) [4, 15]: 81% | % Released into 0.1 N HCl with 0.3% Tween 80 at sampling time (min) [4, 16]: 99% | % Released into Phosphate Buffer (pH 4.5) with 0.3% Tween 80 at sampling time (min) [4, 16]: 100% | % Released into Phosphate Buffer (pH 6.8) with 0.3% Tween 80 at sampling time (min) [4, 16]: 98% | % Released into 0.1 N HCl with 0.3% Tween 80 at sampling time (min) [4, 17]: 100% | % Released into Phosphate Buffer (pH 4.5) with 0.3% Tween 80 at sampling time (min) [4, 17]: 102% | % Released into Phosphate Buffer (pH 6.8) with 0.3% Tween 80 at sampling time (min) [4, 17]: 102% | % Released into 0.1 N HCl with 0.3% Tween 80 at sampling time (min) [4, 18]: 100% | % Released into Phosphate Buffer (pH 4.5) with 0.3% Tween 80 at sampling time (min) [4, 18]: 102% | % Released into Phosphate Buffer (pH 6.8) with 0.3% Tween 80 at sampling time (min) [4, 18]: 102% | % Released into 0.1 N HCl with 0.3% Tween 80 at sampling time (min) [4, 19]: 100% | % Released into Phosphate Buffer (pH 4.5) with 0.3% Tween 80 at sampling time (min) [4, 19]: 102% | % Released into Phosphate Buffer (pH 6.8) with 0.3% Tween 80 at sampling time (min) [4, 19]: 102% | % Released into 0.1 N HCl with 0.3% Tween 80 at sampling time (min) [4, 20]: 99% | % Released into Phosphate Buffer (pH 4.5) with 0.3% Tween 80 at sampling time (min) [4, 20]: 102% | % Released into Phosphate Buffer (pH 6.8) with 0.3% Tween 80 at sampling time (min) [4, 20]: 102%
Compound: O=C([O-])C[C@H](O)C[C@H](O)/C=C/c1c(C2CC2)nc2ccccc2c1-c1ccc(F)cc1.O=C([O-])C[C@H](O)C[C@H](O)/C=C/c1c(C2CC2)nc2ccccc2c1-c1ccc(F)cc1.[Ca+2] [Pitavastatin Ca, pitavastatin calcium]
Kidney dysfunction / kidney damage [3]: additively ameliorates kidney damage
